Laboratory results reported in patent publication US20220331303A1, “USE OF AN OREXIN 2 RECEPTOR AGONIST FOR THE TREATMENT OF EXCESSIVE SLEEPINESS” (Takeda Pharmaceutical Company Limited, priority 2019, published 2022).
“Also recorded” adds a separate entry of the source. Where two headings read alike, the source gives them in different places.

Assay: Plasma PK of Compound A after a single 9-hour IV infusion in sleep-deprived healthy male subjects
Format: in vivo, human
Conditions: for concentration at 3 h: 3 h post infusion end
Description: This was a phase 1b, single-center, randomized, double-blind, double-dummy, placebo- and active-controlled, 4-period Williams design crossover study to evaluate the PK, PD, and safety of Compound A in sleep-deprived healthy volunteers. Compound A was administered as a 9-hour IV infusion.
Healthy adult male subjects aged 18 to 40 years, inclusive, who satisfied the inclusion and exclusion criteria were enrolled in the trial. On Day 1 of treatment period 1, eligible subjects were equally randomized to 4 treatment sequence groups (sequence 1 to 4) which defined the order of administration for Compound A LD, Compound A HD (both delivered as a 9-hour IV infusion), modafinil 300 mg, and placebo.
During the day before dosing on Day 1, participants were administered the KSS at scheduled timepoints. A practice MWT session was performed on Day 1 treatment period 1 (only once during the entire study) to familiarize subjects with the procedures. Study drug was administered in the clinic in the evening on Day 1 of each treatment period. Subjects underwent the MWT and KSS at specified timepoints after the start of the infusion. Subjects were required to stay awake between the MWT tests. Following completion of the IV infusion on Day 2, subjects underwent an additional MWT test. When the final MWT test and cognitive testing were completed, subjects were allowed to sleep (recovery sleep) for approximately 6 hours. PSG recording was collected during this time. Subjects were discharged from the unit after completion on Day 2 with continuing actigraphy upon discharge (to begin on Day −6 before the next treatment period). The interval between each subsequent treatment period was at least 7 days to ensure that the subject's circadian rhythm had returned to a normal cycle. Subject's vital signs, including BP, were monitored during the dosing and testing period. Blood samples for determination of Compound A plasma concentrations were collected at specified timepoints on Days 1 and 2 of each treatment period. Subjects completed the Columbia-Suicide Severity Rating Scale (C-SSRS) during screening, before study drug administration, and before discharge on Day 2 of each treatment period.
Plasma concentrations were tabulated, and descriptive statistics were calculated for each Compound A dose level and are listed in Tables 3-6 for Compound A. The mean plasma concentration versus time plots for Compound A are shown in FIG. 1.

[1] = 2.55-fold increase in dose (44 to 112 mg)

Structure (SMILES): COC(=O)N1CCC[C@H](NS(C)(=O)=O)[C@@H]1CO[C@H]1CC[C@@H](c2ccccc2)CC1 [Compound A, methyl (2R,3S)-3-((methylsulfonyl)amino)-2-(((cis-4-phenylcyclohexyl)oxy)methyl)piperidine-1-carboxylate]
- Fold increase in AUClast [1]: 2.45 fold
- Fold increase in AUC∞ [1]: 2.46 fold
- Fold increase in Ceoi [1]: 2.45 fold
- Fold increase in Cmax [1]: 2.52 fold
- Dose proportionality of systemic exposure (between 44 and 112 mg dose levels): approximately dose-proportionately; also recorded: approximately dose proportionately
- Mean plasma concentration as share of the observed maximum concentration (by 4 hours after start of infusion, 44 mg and 112 mg): more than 80%
- concentration at 1 h (male, human, plasma, iv, 44 mg, 44 mg 9-h IV infusion, 1 h post infusion start, read-out: Plasma concentration (GM)): 63.1 ng/mL
- concentration at 1 h (male, human, plasma, iv, 44 mg, 44 mg 9-h IV infusion, 1 h post infusion start, read-out: Plasma concentration (Mean)): 64.4 ng/mL
- concentration at 1 h (male, human, plasma, iv, 44 mg, 44 mg 9-h IV infusion, 1 h post infusion start, read-out: Plasma concentration (Median)): 65.5 ng/mL
- concentration at 2 h (male, human, plasma, iv, 44 mg, 44 mg 9-h IV infusion, 2 h post infusion start, read-out: Plasma concentration (GM)): 72.9 ng/mL
- concentration at 2 h (male, human, plasma, iv, 44 mg, 44 mg 9-h IV infusion, 2 h post infusion start, read-out: Plasma concentration (Mean)): 74 ng/mL
- concentration at 2 h (male, human, plasma, iv, 44 mg, 44 mg 9-h IV infusion, 2 h post infusion start, read-out: Plasma concentration (Median)): 72.6 ng/mL
- concentration at 4 h (male, human, plasma, iv, 44 mg, 44 mg 9-h IV infusion, 4 h post infusion start, read-out: Plasma concentration (GM)): 88.3 ng/mL
- concentration at 4 h (male, human, plasma, iv, 44 mg, 44 mg 9-h IV infusion, 4 h post infusion start, read-out: Plasma concentration (Mean)): 89.3 ng/mL
- concentration at 4 h (male, human, plasma, iv, 44 mg, 44 mg 9-h IV infusion, 4 h post infusion start, read-out: Plasma concentration (Median)): 88.2 ng/mL
- concentration at 6 h (male, human, plasma, iv, 44 mg, 44 mg 9-h IV infusion, 6 h post infusion start, read-out: Plasma concentration (GM)): 97.8 ng/mL
- concentration at 6 h (male, human, plasma, iv, 44 mg, 44 mg 9-h IV infusion, 6 h post infusion start, read-out: Plasma concentration (Mean)): 98.7 ng/mL
- concentration at 6 h (male, human, plasma, iv, 44 mg, 44 mg 9-h IV infusion, 6 h post infusion start, read-out: Plasma concentration (Median)): 97.4 ng/mL
- concentration at 9 h (male, human, plasma, iv, 44 mg, 44 mg 9-h IV infusion, 9 h post infusion start, read-out: Plasma concentration (GM)): 102 ng/mL
- concentration at 9 h (male, human, plasma, iv, 44 mg, 44 mg 9-h IV infusion, 9 h post infusion start, read-out: Plasma concentration (Mean)): 103 ng/mL
- concentration at 9 h (male, human, plasma, iv, 44 mg, 44 mg 9-h IV infusion, 9 h post infusion start, read-out: Plasma concentration (Median)): 101 ng/mL
- AUC(0-t) (male, human, plasma, iv, 44 mg, 44 mg [LD] single 9-hour IV infusion, read-out: AUClast (GM)): 933 ng·h/mL
- AUC(0-t) (male, human, plasma, iv, 44 mg, 44 mg [LD] single 9-hour IV infusion, read-out: AUClast (Mean)): 940 ng·h/mL
- AUC(0-t) (male, human, plasma, iv, 44 mg, 44 mg [LD] single 9-hour IV infusion, read-out: AUClast (Median)): 888 ng·h/mL
- AUC(0-inf) (male, human, plasma, iv, 44 mg, 44 mg [LD] single 9-hour IV infusion, read-out: AUC∞ (GM)): 955 ng·h/mL
- AUC(0-inf) (male, human, plasma, iv, 44 mg, 44 mg [LD] single 9-hour IV infusion, read-out: AUC∞ (Mean)): 964 ng·h/mL
- AUC(0-inf) (male, human, plasma, iv, 44 mg, 44 mg [LD] single 9-hour IV infusion, read-out: AUC∞ (Median)): 911 ng·h/mL
- clearance (male, human, plasma, iv, 44 mg, 44 mg [LD] single 9-hour IV infusion, read-out: CL (Mean) (converted)): 773 mL/min
- clearance (male, human, plasma, iv, 44 mg, 44 mg [LD] single 9-hour IV infusion, read-out: CL (Median) (converted)): 805 mL/min
- Cmax (male, human, plasma, iv, 44 mg, 44 mg [LD] single 9-hour IV infusion, read-out: Cmax (GM)): 106 ng/mL
- Cmax (male, human, plasma, iv, 44 mg, 44 mg [LD] single 9-hour IV infusion, read-out: Cmax (Mean)): 106 ng/mL
- Cmax (male, human, plasma, iv, 44 mg, 44 mg [LD] single 9-hour IV infusion, read-out: Cmax (Median)): 102 ng/mL
- Vd (male, human, plasma, iv, 44 mg, 44 mg [LD] single 9-hour IV infusion, read-out: Vss (Mean)): 107 L
- Vd (male, human, plasma, iv, 44 mg, 44 mg [LD] single 9-hour IV infusion, read-out: Vss (Median)): 99.2 L
- Vd (male, human, plasma, iv, 44 mg, 44 mg [LD] single 9-hour IV infusion, read-out: Vz (Mean)): 207 L
- Vd (male, human, plasma, iv, 44 mg, 44 mg [LD] single 9-hour IV infusion, read-out: Vz (Median)): 211 L
- Tmax (male, human, plasma, iv, 44 mg, 44 mg [LD] single 9-hour IV infusion, read-out: tmax (Mean)): 8.15 h
- Tmax (male, human, plasma, iv, 44 mg, 44 mg [LD] single 9-hour IV infusion, read-out: tmax (Median)): 9 h
- concentration at 0.17 h (male, human, plasma, iv, 112 mg, 112 mg 9-h IV infusion, 0.17 h post infusion end, read-out: Plasma concentration (GM)): 194 ng/mL
- concentration at 0.5 h (male, human, plasma, iv, 112 mg, 112 mg 9-h IV infusion, 0.5 h post infusion end, read-out: Plasma concentration (GM)): 122 ng/mL
- concentration at 1 h (male, human, plasma, iv, 112 mg, 112 mg 9-h IV infusion, 1 h post infusion end, read-out: Plasma concentration (GM)): 97.5 ng/mL
- concentration at 2 h (male, human, plasma, iv, 112 mg, 112 mg 9-h IV infusion, 2 h post infusion end, read-out: Plasma concentration (GM)): 56.7 ng/mL
- concentration at 3 h (male, human, plasma, iv, 112 mg, 112 mg 9-h IV infusion, read-out: Plasma concentration (GM)): 50.8 ng/mL
- concentration at 3 h (male, human, plasma, iv, 112 mg, 112 mg 9-h IV infusion, read-out: Plasma concentration (Median)): 54 ng/mL
- concentration at 4 h (male, human, plasma, iv, 112 mg, 112 mg 9-h IV infusion, 4 h post infusion end, read-out: Plasma concentration (GM)): 40.4 ng/mL
- concentration at 4 h (male, human, plasma, iv, 112 mg, 112 mg 9-h IV infusion, 4 h post infusion end, read-out: Plasma concentration (Median)): 44.7 ng/mL
- concentration at 6 h (male, human, plasma, iv, 112 mg, 112 mg 9-h IV infusion, 6 h post infusion end, read-out: Plasma concentration (GM)): 23.6 ng/mL
- concentration at 6 h (male, human, plasma, iv, 112 mg, 112 mg 9-h IV infusion, 6 h post infusion end, read-out: Plasma concentration (Median)): 23.4 ng/mL
- concentration at 9 h (male, human, plasma, iv, 112 mg, 112 mg 9-h IV infusion, 9 h post infusion end, read-out: Plasma concentration (GM)): 13 ng/mL
- concentration at 9 h (male, human, plasma, iv, 112 mg, 112 mg 9-h IV infusion, 9 h post infusion end, read-out: Plasma concentration (Median)): 11.9 ng/mL
- AUC(0-t) (male, human, plasma, iv, 112 mg, 112 mg [HD] single 9-hour IV infusion, read-out: AUClast (GM)): 2300 ng·h/mL
- AUC(0-t) (male, human, plasma, iv, 112 mg, 112 mg [HD] single 9-hour IV infusion, read-out: AUClast (Mean)): 2300 ng·h/mL
- AUC(0-t) (male, human, plasma, iv, 112 mg, 112 mg [HD] single 9-hour IV infusion, read-out: AUClast (Median)): 2300 ng·h/mL
- AUC(0-inf) (male, human, plasma, iv, 112 mg, 112 mg [HD] single 9-hour IV infusion, read-out: AUC∞ (GM)): 2360 ng·h/mL
- AUC(0-inf) (male, human, plasma, iv, 112 mg, 112 mg [HD] single 9-hour IV infusion, read-out: AUC∞ (Mean)): 2370 ng·h/mL
- AUC(0-inf) (male, human, plasma, iv, 112 mg, 112 mg [HD] single 9-hour IV infusion, read-out: AUC∞ (Median)): 2380 ng·h/mL
- clearance (male, human, plasma, iv, 112 mg, 112 mg [HD] single 9-hour IV infusion, read-out: CL (Mean) (converted)): 793 mL/min
- clearance (male, human, plasma, iv, 112 mg, 112 mg [HD] single 9-hour IV infusion, read-out: CL (Median) (converted)): 785 mL/min
- Cmax (male, human, plasma, iv, 112 mg, 112 mg [HD] single 9-hour IV infusion, read-out: Cmax (GM)): 266 ng/mL
- Cmax (male, human, plasma, iv, 112 mg, 112 mg [HD] single 9-hour IV infusion, read-out: Cmax (Mean)): 268 ng/mL
- Cmax (male, human, plasma, iv, 112 mg, 112 mg [HD] single 9-hour IV infusion, read-out: Cmax (Median)): 260 ng/mL
- Vd (male, human, plasma, iv, 112 mg, 112 mg [HD] single 9-hour IV infusion, read-out: Vss (Mean)): 112 L
- Vd (male, human, plasma, iv, 112 mg, 112 mg [HD] single 9-hour IV infusion, read-out: Vss (Median)): 112 L
- Vd (male, human, plasma, iv, 112 mg, 112 mg [HD] single 9-hour IV infusion, read-out: Vz (Mean)): 223 L
- Vd (male, human, plasma, iv, 112 mg, 112 mg [HD] single 9-hour IV infusion, read-out: Vz (Median)): 216 L
- Tmax (male, human, plasma, iv, 112 mg, 112 mg [HD] single 9-hour IV infusion, read-out: tmax (Mean)): 7.88 h
- Tmax (male, human, plasma, iv, 112 mg, 112 mg [HD] single 9-hour IV infusion, read-out: tmax (Median)): 9 h
- half-life (male, human, plasma, after end of 9-h IV infusion, biphasic decline, read-out: Mean terminal half-life (t1/2z) (converted)): ~3 h
